These are literature values, as cited in patent publication US20240238224A1, “COMPOSITION FOR LOCAL ANAESTHESIA AND USES THEREOF” (priority 2023, published 2024).

The structures appear in SMILES notation.

This data set deals with test teeth.

In the case of `CCCCN1CCCCC1C(=O)Nc1c(C)cccc1C` (centres unmarked) [bupivacaine, 1-butyl-N-(2,6-dimethylphenyl)piperidine-2-carboxamide], the “effectiveness compared with tetracaine” value (reported in U.S. Pat. No. 8,580,282 B2, cols. 7, 13, 14) is listed as “not as effective as tetracaine”.

In the case of `CCCCNc1ccc(C(=O)OCCN(C)C)cc1` [tetracaine, 2-(dimethylamino)ethyl 4-(butylamino)benzoate], for the setting “non-injected formulation with vasoconstrictor, reported in U.S. Pat. No. 8,580,282 B2”, the “effectiveness for inducing pulpal anesthesia, 4% versus 3% tetracaine” value was 4% tetracaine is less effective than 3%.
